The term EC50 denotes the concentration giving half of the maximal effect. A lower EC50 goes with higher potency in that assay. For orientation: Emax means the size of the effect at its maximum, as opposed to the concentration needed. The term IC50 denotes the point on the concentration scale where inhibition reaches its midpoint. Low readings indicate higher potency, high ones lower potency.

The text below walks through data of patent publication US12552806B2, “Androgen receptor regulation by small molecule enantiomers” (University of Southern California, priority 2020, dated 2026).

Where a chain is given by its changes, count along the chain named. Entries after “also recorded” stand apart in the source; their conditions may differ. Like-named read-outs stand apart in the source and are kept apart here.

The target of one data set is T1, GFP-AR (Homo sapiens, UniProt P10275).
T1 construct: expressed in transfected cells; host or cells: PC3
T1 sequence (P10275 1-920): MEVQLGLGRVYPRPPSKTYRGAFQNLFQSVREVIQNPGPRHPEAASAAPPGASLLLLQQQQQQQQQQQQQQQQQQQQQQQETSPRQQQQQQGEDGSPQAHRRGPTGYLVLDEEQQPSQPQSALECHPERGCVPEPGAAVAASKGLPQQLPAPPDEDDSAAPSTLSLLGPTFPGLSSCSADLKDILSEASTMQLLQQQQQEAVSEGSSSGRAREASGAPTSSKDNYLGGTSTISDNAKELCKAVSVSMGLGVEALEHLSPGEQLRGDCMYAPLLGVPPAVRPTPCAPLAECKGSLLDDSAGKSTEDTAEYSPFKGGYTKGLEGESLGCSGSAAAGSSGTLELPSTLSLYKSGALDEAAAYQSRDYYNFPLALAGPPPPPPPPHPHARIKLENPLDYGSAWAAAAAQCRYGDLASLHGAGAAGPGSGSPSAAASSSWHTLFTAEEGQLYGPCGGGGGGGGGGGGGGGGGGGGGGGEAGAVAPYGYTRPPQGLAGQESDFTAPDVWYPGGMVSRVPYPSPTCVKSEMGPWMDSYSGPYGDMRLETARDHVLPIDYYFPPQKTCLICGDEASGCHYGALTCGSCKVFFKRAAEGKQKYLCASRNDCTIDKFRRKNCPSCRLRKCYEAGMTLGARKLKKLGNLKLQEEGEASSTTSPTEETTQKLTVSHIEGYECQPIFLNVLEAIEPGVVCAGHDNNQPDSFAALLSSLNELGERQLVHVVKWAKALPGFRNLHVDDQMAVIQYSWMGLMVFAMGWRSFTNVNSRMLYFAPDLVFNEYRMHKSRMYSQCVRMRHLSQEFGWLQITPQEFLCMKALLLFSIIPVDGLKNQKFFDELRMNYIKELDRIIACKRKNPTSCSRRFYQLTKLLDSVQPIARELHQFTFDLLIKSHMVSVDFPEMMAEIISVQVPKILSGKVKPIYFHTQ
As to the kind of experiment: Confocal microscopy of PC3 GFP-AR cells (nuclear hyperspeckling). Type of data set: cell-based. As to conditions: 10 μM enantiomer 180 min, 1 nM R1881 90 min. Here is the method:
Initial compound testing was performed with PC3 GFP-AR cells and confocal microscopy. First, we tested purified BMS enantiomers (FIG. 6A).
(§1) PC3 and VCaP cell lines were obtained from ATCC and cultured as recommended. Generation and culture of PC3 GFP-AR cells were described previously (14). ARE-luciferase cells were generated using Cignal Lenti AR Reporter (Qiagen). Cell lines were authenticated using NIST-approved short tandem repeat DNA profiling and tested negative for mycoplasma. Drug treatments were conducted after overnight culture in phenol red-free media supplemented with charcoal:dextran stripped FBS.
Confocal Microscopy. PC3 GFP-AR cells were seeded and stained overnight with SiR-DNA ([…]).

Data set [1] concerns AR-regulated genes in VCaP cells. As to the kind of experiment: RT-qPCR array of AR target genes in VCaP cells. The following applies: 82 AR target genes, vs NTC and DHT. Type of data set: cell-based. Here is the method: To test for corresponding transcriptional activation, we performed assays in cells expressing ARE-luciferase. […] Next, we examined gene expression in VCaP cells, a hormone-responsive but independent model of CRPC highly expressing AR.
RT-qPCR Array. RNA was isolated using the Illustra RNAspin Mini Kit (GE Healthcare). RNA was transcribed to cDNA using RT2 First Strand Kit (Qiagen). RT-qPCR was performed using Biorad CFX Connect on a RT2 Profiler PCR Array Human Androgen Receptor Signaling Targets (Qiagen).
Background: Quantitative PCR measures a nucleic acid by following its amplification.

The next data set concerns LNCaP cells. As to the kind of experiment: LNCaP cell viability assay (CellTiter-Glo). Type of data set: cell-based. The following applies: 1 and 10 μM drug + 60 pM R1881, 5 days. The procedure: LNCaP cell viability assay. Cells were seeded into 96-well fibronectin coated (1 ug/cm^2) plates (CellCarrier, PerkinElmer) at a density of 5,000 cells/well. […] Drug-treated cells were lysed with CellTiter-Glo 3D Cell Viability Assay (Promega) and transferred to white 96-well plates (Corning). Luminescence was measured utilizing GloMax 96 Microplate Luminometer (Promega). Analysis was conducted in the R statistical environment (v 3.6.0). […] Visualizations were facilitated by the ggplot2 package (v3.2.1), with standard error (S.E.) shown where appropriate.
(Cellular ATP, detected with luciferase, serves as a proxy for viable cell number.)

A further data set deals with T2, AR T878A (Homo sapiens, UniProt P10275, T878A).
T2 construct: LNCaP cells expressing AR T878A; endogenous in cells; host or cells: LNCaP-luc (LNCaP stably carrying the Cignal Lenti AR Reporter)
T2 sequence (P10275 1-920 T878A): T1 sequence (P10275 1-920) with T878A
In words: cell-based. Type of data set: cell-based. An excerpt: We generated a LNCaP cell line stably expressing luciferase controlled by androgen response elements (ARE-luciferase).
Cell Culture and Treatments. The LNCaP cell line were obtained from ATCC, cultured in RPMI1640 (Corning) supplemented with 10% heat-inactivated GemCell bovine serum (Gemini Bio-Products) and Penicillin-Streptomycin (Gemini Bio-Products). Cell lines stably expressing ARE-luciferase (LNCaP-luc) was generated using Cignal Lenti AR Reporter (Qiagen) and was continuously cultured with 500 ng/mL Puromycin (Gibco) for positive selection. Cells were maintained at 37° C. in a humidified incubator with 5% carbon dioxide. All cell lines were authenticated using NIST approved short tandem repeat (STR) DNA profiling performed by the University of Arizona Genetics Core and routinely tested negative for mycoplasma.
Luciferase assay. LNCaP-luc cells were seeded in clear flat bottom white polystyrene 96-well plates (Corning) at a density of 12,000 cells/well. […] Dose-response curves were fit using the delta method and t-distribution (n=1). Compounds are tested up to 10 μM.

A short description of data set [2]: Microsome stability assay. As to conditions: for toxic metabolite BMS-501949 detected in LCMS / active metabolite detected in LCMS: 10 μM drug; for toxic metabolite BMS-501949 detected in LCMS: 8 h incubation, o-fluoro-BMS-501949 for EITM-1707; for active metabolite detected in LCMS: Unnamed metabolite (predicted active) for EITM compounds, BMS-570511 for BMS-641988, 8 h; for half-life at 1 μM / microsomal CLint at 1 μM: human, pooled human liver microsomes, pH 7.4, liver microsomes; for half-life at 1 μM: 1 μM drug, read-out: T½; for microsomal CLint at 1 μM: read-out: rate of intrinsic clearance. The data set is classed as in vitro ADME, human. The procedure: Microsome stability assays. In vitro metabolism was determined as described previously. Specifically, to measure metabolism of parent compounds, the higher throughput protocol was applied, in which 0.5 mg/ml pooled human liver microsomes (Sigma) were mixed with 1 μM drugs and phosphate buffer (0.1 M, pH 7.4) in 96-well plates. Enzymatic reactions were started by adding 1 mM NADPH (Sigma Aldrich) followed by incubation at 37° C. Fractions were quenched by transfer to ice-cold acetonitrile after the indicated incubation times. Samples were analyzed using liquid chromatography-mass spectrometry (LC/MS-MS). Rates of intrinsic clearance were determined from the amount of the parent compound consumed per min per mg of microsomal protein as described previously. To analyze accumulating metabolites, the basic protocol was used, and microsomes were incubated with 10 μM drugs for 8 h.

A further data set deals with VCaP cells. In words: VCaP viability assay (CellTiter-Glo). Type of data set: cell-based. The procedure:
as §1
Luminometer Assays. For ARE-luciferase, luciferase substrate was added to lysed cells after 24-h treatment. For viability, cells were lysed with CellTiter-Glo 3D Cell Viability Assay (Promega) after 6 d of treatment. Measurements were performed in 96-well plates (Corning) using a GloMax 96 Microplate Luminometer (Promega).

On to `CCS(=O)(=O)N[C@H]1C[C@]2(C)O[C@@]1(C)[C@H]1C(=O)N(c3ccc(C#N)c(C(F)(F)F)c3)C(=O)[C@H]12` [(S)-BMS, N-((3aS,4S,5S,7S,7aR)-2-(4-cyano-3-(trifluoromethyl)phenyl)-4,7-dimethyl-1,3-dioxooctahydro-1H-4,7-epoxyisoindol-5-yl)ethanesulfonamide], for which the “nuclear hyperspeckling, in words” value on GFP-AR is “caused substantial hyperspeckling, comparable to that of R1881”.
Regarding `CC(O)c1cc(C(=O)N[C@H]2C[C@]3(C)O[C@@]2(C)[C@H]2C(=O)N(c4ccc(C#N)c(C(F)(F)F)c4F)C(=O)[C@H]23)n[nH]1` (stereo partly drawn) [(S)-EITM-1707, N-((3aS,4S,5S,7S,7aR)-2-(4-cyano-2-fluoro (trifluoromethyl)phenyl)-4,7-dimethyl-1,3-dioxooctahydro-1H-4,7-epoxyisoindol-5-yl)-5-(1-hydroxyethyl)-1H-pyrazole-3-carboxamide], the “AR-dependent gene expression, in words” value in data set [1] is “rescued the castration phenotype, mimicking DHT”.
As for `CCS(=O)(=O)N[C@@H]1C[C@@]2(C)O[C@]1(C)[C@@H]1C(=O)N(c3ccc(C#N)c(C(F)(F)F)c3)C(=O)[C@@H]12` [BMS-641988, N-((3aR,4R,5R,7R,7aS)-2-(4-cyano-3-(trifluoromethyl)phenyl)-4,7-dimethyl-1,3-dioxooctahydro-1H-4,7-epoxyisoindol-5-yl)ethanesulfonamide, reference compound], the “nuclear hyperspeckling, in words” value at GFP-AR is on record as “inhibited R1881-induced hyperspeckling”. The “LNCaP proliferation / viable cells, in words” value in the data set on LNCaP cells is “promoted proliferation”. Further, at AR T878A, the “AR agonism / antagonism in LNCaP ARE-luciferase, in words” value is “potent agonist in LNCaP cells; also recorded: induced ARE-luciferase without addition of R1881”; it took 0.094 ± 0.022 µM to reach a half-maximal effect (EC50); the ED50 result is on record as “agonist”; the Emax result is listed as “agonist”. Further, in data set [2], the “toxic metabolite BMS-501949 detected in LCMS” value is “accumulated and yes”; the “active metabolite detected in LCMS” value is recorded as “yes”; the half-life at 1 μM was 1.44 h; the microsomal CLint at 1 μM worked out at 10.1 µL/min/mg.
For `C[C@]12O[C@](C)(C[C@H]1NC(=O)c1cc[nH]n1)[C@H]1C(=O)N(c3ccc(C#N)c(C(F)(F)F)c3)C(=O)[C@H]12` [EITM-1702, N-((3aR,4R,5R,7R,7aS)-2-(4-cyano-3-(trifluoromethyl)phenyl)-4,7-dimethyl-1,3-dioxooctahydro-1H-4,7-epoxyisoindol-5-yl)-1H-pyrazole-3-carboxamide], the “LNCaP proliferation / viable cells, in words” value in the data set with LNCaP cells is reported as “almost phenocopying castrate conditions; also recorded: inhibited the growth of LNCaP prostate cancer cells”. In addition, on AR T878A, the “AR agonism / antagonism in LNCaP ARE-luciferase, in words” value is recorded as “robust antagonistic activities without notable agonism” and the EC50 came to 0.57 µM. Further, the Emax at AR T878A (LNCaP) worked out at 8%. The “R1881-induced growth, in words” value in the data set on VCaP cells (10 μM drug + 1 nM R1881, 6-d treatment) is “visibly suppressed R1881-induced growth”. For the same molecule, the “(S)-enantiomer fraction that halved the drug effect, cell viability” value with VCaP cells (10 μM mixture + 1 nM R1881, 6 d, 95% CI (0.2%, 0.4%)) is on record as 0.3%. Besides, the “(S)-enantiomer fraction that rescued the proliferation phenotype, cell viability” value in the data set on VCaP cells (10 μM mixture + 1 nM R1881, 6 d, 95% CI (0.7%, 3.7%)) was 2.2%. Besides, the IC50 in the data set on VCaP cells (Homo sapiens, VCaP) came to 0.54 µM. For the same molecule, in data set [2], the “toxic metabolite BMS-501949 detected in LCMS” value is recorded as “not detected”, the “active metabolite detected in LCMS” value is recorded as “yes”, the half-life at 1 μM is 0.944 h and the microsomal CLint at 1 μM was found to be 15.3 µL/min/mg. Besides, in data set [2] (listed as (R)-EITM-1702), the “toxic metabolite BMS-501949 detected in LCMS” value is “no”.
